The source of these data is patent US10047083B2, “Dihydropyrimidinoisoquinolinones and pharmaceutical compositions thereof for the treatment of inflammatory disorders” (GALAPAGOS NV, priority 2011, dated 2018).

The target of one assay is T1, GPR84 (Homo sapiens, UniProt Q9NQS5).
T1 construct: expressed in transfected cells; membranes used
In words: GTPγS binding assay (GPR84). Format: biochemical. Conditions: membranes from stable cell line over expressing GPR84; 3,3′ di indolylmethane at EC80. An outline of the steps: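 Membranes (20 μg/well) from a stable GPR84-overexpressing line, pre-incubated with 0.1 μM GDP for 15 min at 4° C, mixed with 0.1 nM [35S]GTPγS and WGA SpA beads in 20 mM HEPES pH 7.4, 5 mM MgCl2, 250 mM NaCl, 0.05% BSA, 75 ug/mL saponin; 90 min at room temperature, then scintillation counting.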
Background: GTPγS resists hydrolysis and so accumulates on activated G proteins.

Another assay deals with human neutrophils. Kind of assay: Human neutrophil migration assay (embelin-induced). Format: cell-based. To be noted: neutrophils from human buffy coat, 30 min compound pre-incubation, migration towards embelin at EC80 for 1 h, ATPlite readout, read-out: human neutrophil migration inhibition (Neutrophils). How it is done: 2. Cellular Assays 2.1. Human Neutrophil Migration Assay
The effect of agonists or antagonists for GPR84 can therefore be assayed in a neutrophil migration test. In the neutrophil migration assay, neutrophils, freshly isolated from buffy coats from human volunteers, are treated with a compound for 30 minutes. Subsequently, the neutrophils are transferred to the upper wells of a Corning HTS transwell 96 permeable support system, of which the lower wells are filled with a embelin solution at EC80 (concentration which gives 80% of the activity of GPR84). After 1 h of incubation, migration of the neutrophils towards embelin in the lower compartment can be quantified by measuring the ATP-content of the lower wells using the ATPlite luminescence ATP detection assay system (Perkin Elmer, Cat. No.: 436110).
A human buffy coat is diluted with an equal volume of ice cold DPBS. 20 mL of the diluted buffy coat is gently mixed with 4 mL of ACD buffer (140 mM citric acid, 200 mM sodium citrate and 220 mM dextrose). Then, 12 mL of the 6% dextran/0.9% NaCl solution (15 g dextran T2000 and 2.25 g NaCl dissolved in 250 mL H2O) is added to the mixture and the samples are inverted gently up to 20 times. The total volume was transferred to a new recipient and incubated at room temperature for 1 h for complete separation of the two phases to occur. The yellowish supernatant is then transferred to a clean centrifugation tube and centrifuged for 12 minutes at 1300 rpm and 4° C. After centrifugation, the supernatant is discarded and the remaining cell pellet is rapidly resuspended in 12 mL of ice-cold H2O for red blood cell lysis to occur. After 20 seconds, 4 mL of ice-cold 0.6 M KCl is added. Samples are mixed carefully and centrifuged for 6 minutes at 1300 rpm, 4° C. The supernatant is discarded and the red blood cell lysis procedure is repeated one more time. Subsequently, the cell pellet is resuspended in 4 mL of DPBS and layered over 5 mL of Lymphoprep (Nycomed Pharma, Cat. No.: 1114545) in a 15 mL centrifuge tube. After centrifugation for 12 min at 1300 rpm, 4° C., the supernatant is removed and the cell pellet, containing the neutrophils, is resuspended in 25 mL chemotaxis buffer (RPMI 1640 medium, supplemented with 10 mM HEPES; freshly made for each experiment)
A cell suspension of 8.9×10^6 cells per milliliter is prepared. 20 μL of compound solution in chemotaxis buffer is added to 180 μL cell suspension. The mixture is incubated at 37° C. for 30 minutes with intermediate resuspension of the cells after 15 minutes. Following this, 70 μL cell suspension is transferred to the upper compartment of a Corning HTS transwell 96 permeable support system with 5.0 μm pore size polycarbonate membrane (Corning, Cat. No.: 3387). The receiver well of the transwell system is then filled with 200 μL chemotaxis buffer containing compound and chemotactic agent (embelin). After incubation at 37° C. in 5% CO2 for 1 h, the upper plate of the transwell system is removed and the cell suspension in the receiver plate is transferred to a 96-well V-bottom plate. 50 μL of DPBS is added to the receiver plate to prevent remaining cells from drying out. The V-bottom plate is centrifuged for 6 minutes at 1500 rpm. The supernatant is removed and the cells are resuspended in 50 μL DPBS. The cells are then transferred back to the receiver plate of the transwell system. After this, 100 μL ATPlite solution (Perkin Elmer, Cat. No: 436110) was added to the cells. The plate is incubated for 10 minutes in the dark, while shaking. […] of cell lysate is then transferred to a white 96-well plate and luminescence is measured. The detected luminescent signal is considered as linearely related to the number of cells having migrated from the upper well to the receiver well.
For orientation: ATP-based viability assays read luminescence as a measure of living cells.

T1 sequence (Q9NQS5 whole entry): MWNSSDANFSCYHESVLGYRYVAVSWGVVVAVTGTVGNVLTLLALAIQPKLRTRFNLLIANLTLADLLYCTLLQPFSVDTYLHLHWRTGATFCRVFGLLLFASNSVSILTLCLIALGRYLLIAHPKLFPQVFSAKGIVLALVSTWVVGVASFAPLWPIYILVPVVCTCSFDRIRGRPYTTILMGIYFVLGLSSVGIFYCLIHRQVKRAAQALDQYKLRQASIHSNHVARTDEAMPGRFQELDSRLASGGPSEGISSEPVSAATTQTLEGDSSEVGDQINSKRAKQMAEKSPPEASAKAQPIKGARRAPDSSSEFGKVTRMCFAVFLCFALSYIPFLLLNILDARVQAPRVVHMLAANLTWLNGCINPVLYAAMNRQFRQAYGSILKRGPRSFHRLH

`O=c1nc(OCC2COCCO2)cc2n1CCc1cc(CCCNc3ccccc3)ccc1-2` (stereo in doubt) [Compound 149, 2-((S)-1-[1,4]dioxan-2-ylmethoxy)-9-(3-phenylamino-propyl)-6,7-dihydro-pyrimido[6,1-a]isoquinolin-4-one]: the IC50 at GPR84 and in the assay on human neutrophils was 0.01 to 100 nM throughout. For `N#Cc1ccccc1-c1ccc2c(c1)CCn1c-2cc(OCC2COCCO2)nc1=O` (centres unmarked) [Compound 4, 2-[2-([1,4]dioxan-2-ylmethoxy)-4-oxo-6,7-dihydro-4H-pyrimido[6,1-a]isoquinolin-9-yl]-benzonitrile], in the assay with human neutrophils, the IC50 is 101 to 500 nM. Consider `N#CCOc1ccc2c(c1)CCn1c-2cc(OCC2COCCO2)nc1=O` (centres unmarked) [Compound 7, [2-([1,4]dioxan-2-ylmethoxy)-4-oxo-6,7-dihydro-4H-pyrimido[6,1-a]isoquinolin-9-yloxy]-acetonitrile], for which the IC50 at GPR84 and with human neutrophils was 101 to 500 nM throughout. On to `O=c1nc(OCC2COCCO2)cc2n1CCc1cc(OCc3ncco3)ccc1-2` (centres unmarked) [Compound 8, 2-([1,4]dioxan-2-ylmethoxy)-9-(oxazol-2-ylmethoxy)-6,7-dihydro-pyrimido[6,1-a]isoquinolin-4-one], for which the IC50 on GPR84 and in the assay with human neutrophils was 101 to 500 nM each time. On to `O=c1nc(OCC2COCCO2)cc2n1CCc1cc(OCc3ccccn3)ccc1-2` (centres unmarked) [Compound 9, 2-([1,4]dioxan-2-ylmethoxy)-9-(pyridin-2-ylmethoxy)-6,7-dihydro-pyrimido[6,1-a]isoquinolin-4-one], for which the IC50 on GPR84 and in the assay with human neutrophils was 0.01 to 100 nM throughout. For `Cn1cncc1C#Cc1ccc2c(c1)CCn1c-2cc(OCC2COCCO2)nc1=O` (centres unmarked) [Compound 16, 2-([1,4]dioxan-2-ylmethoxy)-9-(3-methyl-3H-imidazol-4-ylethynyl)-6,7-dihydro-pyrimido[6,1-a]isoquinolin-4-one], the IC50 on GPR84 and with human neutrophils was 101 to 500 nM in each case. Take `CC(C)(C)c1nc(COc2ccc3c(c2)CCn2c-3cc(OCC3COCCO3)nc2=O)no1` (centres unmarked) [Compound 17, 9-(5-tert-butyl-[1,2,4]oxadiazol-3-ylmethoxy)-2-([1,4]dioxan-2-ylmethoxy)-6,7-dihydro-pyrimido[6,1-a]isoquinolin-4-one]: the IC50 in the assay on human neutrophils lay in the range of 0.01 to 100 nM. Same read-out and setting: under `CCCC#Cc1ccc2c(c1)CCn1c-2cc(OCC2COCCO2)nc1=O` (centres unmarked) [Compound 19, 2-([1,4]dioxan-2-ylmethoxy)-9-pent-1-ynyl-6,7-dihydro-pyrimido[6,1-a]isoquinolin-4-one] stands 0.01 to 100 nM.

On to `O=c1nc(OCC2COCCO2)cc2n1CCc1cc(CCc3ccccn3)ccc1-2` (centres unmarked) [Compound 20, 2-([1,4]dioxan-2-ylmethoxy)-9-(2-pyridin-2-yl-ethyl)-6,7-dihydro-pyrimido[6,1-a]isoquinolin-4-one], for which the IC50 with human neutrophils was 0.01 to 100 nM. Still for that read-out and setting: for `O=c1nc(OCC2COCCO2)cc2n1CCc1cc(-c3ccc4[nH]ccc4c3)ccc1-2` (centres unmarked) [Compound 22, 2-([1,4]dioxan-2-ylmethoxy)-9-(1H-indol-5-yl)-6,7-dihydro-pyrimido[6,1-a]isoquinolin-4-one] the value was 0.01 to 100 nM; for `COc1ccccc1-c1ccc2c(c1)CCn1c-2cc(OCC2COCCO2)nc1=O` (centres unmarked) [Compound 23, 2-([1,4]dioxan-2-ylmethoxy)-9-(2-methoxy-phenyl)-6,7-dihydro-pyrimido[6,1-a]isoquinolin-4-one], 101 to 500 nM. Turning to `O=c1nc(OCC2COCCO2)cc2n1CCc1cc(C#CC3CC3)ccc1-2` (centres unmarked) [Compound 30, 9-cyclopropylethynyl-2-([1,4]dioxan-2-ylmethoxy)-6,7-dihydro-pyrimido[6,1-a]isoquinolin-4-one], the IC50 in the assay with human neutrophils lay within 0.01 to 100 nM. On the same count and under the same terms, for `Cn1ccc2cc(-c3ccc4c(c3)CCn3c-4cc(OCC4COCCO4)nc3=O)ccc21` (centres unmarked) [Compound 34, 2-([1,4]dioxan-2-ylmethoxy)-9-(1-methyl-1H-indol-5-yl)-6,7-dihydro-pyrimido[6,1-a]isoquinolin-4-one] the value was 0.01 to 100 nM; for `Cc1ccc(-c2ccc3c(c2)CCn2c-3cc(OCC3COCCO3)nc2=O)cn1` (centres unmarked) [Compound 35, 2-([1,4]dioxan-2-ylmethoxy)-9-(6-methyl-pyridin-3-yl)-6,7-dihydro-pyrimido[6,1-a]isoquinolin-4-one], 101 to 500 nM. For `O=c1nc(OCC2COCCO2)cc2n1CCc1cc(C#Cc3ccccn3)ccc1-2` (centres unmarked) [Compound 36, 2-([1,4]dioxan-2-ylmethoxy)-9-pyridin-2-ylethynyl-6,7-dihydro-pyrimido[6,1-a]isoquinolin-4-one], the IC50 on GPR84 lay within 0.01 to 100 nM; in the assay with human neutrophils, 101 to 500 nM. With `O=c1nc(OCC2COCCO2)cc2n1CCc1cc(C#Cc3cccnc3)ccc1-2` (centres unmarked) [Compound 41, 2-([1,4]dioxan-2-ylmethoxy)-9-pyridin-3-ylethynyl-6,7-dihydro-pyrimido[6,1-a]isoquinolin-4-one], the results for the IC50 at GPR84 and with human neutrophils were 101 to 500 nM and 0.01 to 100 nM, respectively. For the compound `CNC(=O)c1ccc(-c2ccc3c(c2)CCn2c-3cc(OCC3COCCO3)nc2=O)cc1` (centres unmarked) [Compound 42, 4-[2-([1,4]dioxan-2-ylmethoxy)-4-oxo-6,7-dihydro-4H-pyrimido[6,1-a]isoquinolin-9-yl]-N-methyl-benzamide], the IC50 at GPR84 and with human neutrophils was 101 to 500 nM throughout. As to `CC(C)(C)C#Cc1ccc2c(c1)CCn1c-2cc(OCC2COCCO2)nc1=O` (centres unmarked) [Compound 52, 9-(3,3-Dimethyl-but-1-ynyl)-2-([1,4]dioxan-2-ylmethoxy)-6,7-dihydro-pyrimido[6,1-a]isoquinolin-4-one], the IC50 at GPR84 and with human neutrophils was 0.01 to 100 nM each time. For the compound `COc1ncccc1-c1ccc2c(c1)CCn1c-2cc(OCC2COCCO2)nc1=O` (centres unmarked) [Compound 56, 2-([1,4]dioxan-2-ylmethoxy)-9-(2-methoxy-pyridin-3-yl)-6,7-dihydro-pyrimido[6,1-a]isoquinolin-4-one], the IC50 at GPR84 and in the assay on human neutrophils was 101 to 500 nM in each case. For the compound `CC(C)Oc1ccc(-c2ccc3c(c2)CCn2c-3cc(OCC3COCCO3)nc2=O)cn1` (centres unmarked) [Compound 60, 2-([1,4]Dioxan-2-ylmethoxy)-9-(6-isopropoxy-pyridin-3-yl)-6,7-dihydro-pyrimido[6,1-a]isoquinolin-4-one], the IC50 at GPR84 and with human neutrophils was 0.01 to 100 nM throughout. As to `CN(CC#Cc1ccc2c(c1)CCn1c-2cc(OCC2COCCO2)nc1=O)Cc1ccccc1` (centres unmarked) [Compound 85, 9-[3-(benzyl-methyl-amino)-prop-1-ynyl]-2-([1,4]dioxan-2-ylmethoxy)-6,7-dihydro-pyrimido[6,1-a]isoquinolin-4-one], in the assay with human neutrophils, the IC50 was in the range of 0.01 to 100 nM. Same read-out and setting: for `CC(O)(C#Cc1ccc2c(c1)CCn1c-2cc(OCC2COCCO2)nc1=O)c1ccccc1` (centres unmarked) [Compound 92, 2-([1,4]dioxan-2-ylmethoxy)-9-(3-hydroxy-3-phenyl-but-1-ynyl)-6,7-dihydro-pyrimido[6,1-a]isoquinolin-4-one] the value was 0.01 to 100 nM; for `O=c1nc(OC[C@H]2COCCO2)cc2n1CCc1cc(C#CC3CC3)ccc1-2` [Compound 111, 9-cyclopropylethynyl-2-((R)-1-[1,4]dioxan-2-ylmethoxy)-6,7-dihydro-pyrimido[6,1-a]isoquinolin-4-one], 0.01 to 100 nM. The same measure, in the same setting: for `O=c1nc(OC[C@@H]2COCCO2)cc2n1CCc1cc(C#CC3CC3)ccc1-2` [Compound 122, 9-cyclopropylethynyl-2-((S)-1-[1,4]dioxan-2-ylmethoxy)-6,7-dihydro-pyrimido[6,1-a]isoquinolin-4-one] the value was 0.01 to 100 nM.
